From the CheMixHub ionic liquid set
Several values for one entry are separate records, joined by “and”; a condition that tells them apart may be missing. Equal values may be shown once.

Experiment: xn = mol fraction of the nth substance listed
Settings: 100 kPa

OC[C@H]1O[C@@H](O[C@H]2[C@H](O)[C@@H](O)[C@@H](O)O[C@@H]2CO)[C@H](O)[C@@H](O)[C@H]1O + CCCC[N+](C)(CCCC)CCCC.[Cl-] + O
viscosity
Settings	293.15 K	298.15 K	303.15 K	308.15 K	313.15 K
x1 = 0.0003513, x2 = 0	1.018 mPa·s	0.904 mPa·s	0.804 mPa·s	0.725 mPa·s	0.658 mPa·s
x1 = 0.0003543, x2 = 0.000702	1.043 mPa·s	0.929 mPa·s	0.828 mPa·s	0.745 mPa·s	0.679 mPa·s
x1 = 0.0003546, x2 = 0.0003601	1.027 mPa·s	0.917 mPa·s	0.819 mPa·s	0.735 mPa·s	0.667 mPa·s
x1 = 0.0003558, x2 = 0.001062	1.057 mPa·s	0.948 mPa·s	0.843 mPa·s	0.757 mPa·s	0.696 mPa·s
x1 = 0.0003573, x2 = 0.001421	1.069 mPa·s	0.961 mPa·s	0.856 mPa·s	0.77 mPa·s	0.706 mPa·s
x1 = 0.0007059, x2 = 0	1.038 mPa·s	0.919 mPa·s	0.812 mPa·s	0.731 mPa·s	0.662 mPa·s
x1 = 0.000709, x2 = 0.00036	1.049 mPa·s	0.937 mPa·s	0.834 mPa·s	0.747 mPa·s	0.673 mPa·s
x1 = 0.0007119, x2 = 0.0007018	1.067 mPa·s	0.948 mPa·s	0.843 mPa·s	0.758 mPa·s	0.689 mPa·s
x1 = 0.0007149, x2 = 0.001061	1.081 mPa·s	0.969 mPa·s	0.86 mPa·s	0.771 mPa·s	0.708 mPa·s
x1 = 0.000718, x2 = 0.001421	1.094 mPa·s	0.984 mPa·s	0.876 mPa·s	0.785 mPa·s	0.72 mPa·s
x1 = 0.001058, x2 = 0	1.059 mPa·s	0.936 mPa·s	0.827 mPa·s	0.741 mPa·s	0.671 mPa·s
x1 = 0.001063, x2 = 0.0003599	1.07 mPa·s	0.952 mPa·s	0.848 mPa·s	0.758 mPa·s	0.681 mPa·s
x1 = 0.001067, x2 = 0.0007015	1.088 mPa·s	0.966 mPa·s	0.857 mPa·s	0.77 mPa·s	0.698 mPa·s
x1 = 0.001072, x2 = 0.001061	1.106 mPa·s	0.989 mPa·s	0.877 mPa·s	0.785 mPa·s	0.72 mPa·s
x1 = 0.001077, x2 = 0.00142	1.118 mPa·s	1.003 mPa·s	0.891 mPa·s	0.799 mPa·s	0.733 mPa·s
x1 = 0.001413, x2 = 0	1.079 mPa·s	0.955 mPa·s	0.843 mPa·s	0.752 mPa·s	0.68 mPa·s
x1 = 0.001419, x2 = 0.0003598	1.093 mPa·s	0.971 mPa·s	0.86 mPa·s	0.77 mPa·s	0.694 mPa·s
x1 = 0.001425, x2 = 0.0007013	1.11 mPa·s	0.986 mPa·s	0.872 mPa·s	0.784 mPa·s	0.709 mPa·s
x1 = 0.001431, x2 = 0.001061	1.127 mPa·s	1.006 mPa·s	0.893 mPa·s	0.8 mPa·s	0.734 mPa·s
x1 = 0.001437, x2 = 0.00142	–	1.14 mPa·s	1.02 mPa·s	0.909 mPa·s	0.747 mPa·s and 0.816 mPa·s
x1 = 0.001765, x2 = 0	1.097 mPa·s	0.971 mPa·s	0.858 mPa·s	0.764 mPa·s	0.689 mPa·s
x1 = 0.001774, x2 = 0.0003596	1.118 mPa·s	0.987 mPa·s	0.879 mPa·s	0.783 mPa·s	0.705 mPa·s
x1 = 0.00178, x2 = 0.000701	1.133 mPa·s	1.003 mPa·s	0.889 mPa·s	0.797 mPa·s	0.719 mPa·s
x1 = 0.001787, x2 = 0.00106	1.15 mPa·s	1.024 mPa·s	0.909 mPa·s	0.814 mPa·s	0.745 mPa·s
x1 = 0.001795, x2 = 0.001419	–	1.164 mPa·s	1.038 mPa·s	0.923 mPa·s	0.76 mPa·s and 0.829 mPa·s
